Test results from PubChem BioAssay AID248 (DTP/NCI, 2004).
Values joined by “and” are separate entries in the source; they are usually repeats but may differ in a detail not shown here. Identical values can stand only once. Toxic doses and inconclusive results are not listed.

Tested on: L1210 leukemia ip in BDF1 mice, survival T/C
Assay: NCI In Vivo Anticancer Drug Screen. Data for tumor model L1210 Leukemia (intraperitoneal) in B6D2F1 (BDF1) mice
Settings: endpoint: mean survival time, higher = longer survival
Outline: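 Ratio derived from survival: compound-dosed mice over vehicle-dosed mice, all bearing a transplantable tumor.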

[1] = dose: 100.0 mg/kg/injection, schedule: Q04DX003 (ip), vehicle: Klucel (hydroxypropylcellulose) (HPC)
[2] = dose: 200.0 mg/kg/injection, schedule: Q04DX003 (ip), vehicle: Klucel (hydroxypropylcellulose) (HPC)
[3] = dose: 100.0 mg/kg/injection, schedule: Q04DX003 (ip), vehicle: saline with Tween-80
[4] = dose: 200.0 mg/kg/injection, schedule: Q04DX003 (ip), vehicle: saline with Tween-80
[5] = dose: 100.0 mg/kg/injection, schedule: Q04DX003 (ip), vehicle: saline
[6] = dose: 100.0 mg/kg/injection, schedule: Q01DX001 (ip), vehicle: saline

With `O=[As](O)(c1ccccc1)C1CCCCC1O` (centres undefined) as the molecule, how does the T/C (dose: 6.25 mg/kg/injection, schedule: Q01DX001 (ip), vehicle: saline with Tween-80) read?
Its T/C is 97 % of control.

And the T/C (dose: 12.5 mg/kg/injection, schedule: Q01DX001 (ip), vehicle: saline with Tween-80)?
The T/C was 98 % of control.

And the T/C (dose: 25.0 mg/kg/injection, schedule: Q01DX001 (ip), vehicle: saline with Tween-80)?
Its T/C is 111 % of control.

Which T/C [1] does the source give for `CN(C)c1ccc(CN2CCCN(Cc3ccc(N(C)C)cc3)C2c2ccc(N(CCCl)CCCl)cc2)cc1` here?
Its T/C is 102 % of control.

And the T/C [2]?
Its T/C is 104 % of control.

What about the T/C (dose: 400.0 mg/kg/injection, schedule: Q04DX003 (ip), vehicle: Klucel (hydroxypropylcellulose) (HPC)) of the same molecule?
The T/C was 100 % of control.

How did the T/C (dose: 100.0 mg/kg/injection, schedule: Q04DX002 (ip), vehicle: other) turn out when `CCCCCCCCCCCC(=O)SCCSC(=O)CCCCCCCCCCC` was run?
The T/C was 94 % of control and 104 % of control.

What about the T/C (dose: 100.0 mg/kg/injection, schedule: Q04DX003 (ip), vehicle: other) of the same molecule?
The T/C was 86 % of control and 89 % of control.

And the T/C (dose: 200.0 mg/kg/injection, schedule: Q04DX002 (ip), vehicle: other)?
Its T/C is 113 % of control and 90 % of control.

And the T/C (dose: 200.0 mg/kg/injection, schedule: Q04DX003 (ip), vehicle: other)?
The T/C was 96 % of control and 89 % of control.

And the T/C (dose: 400.0 mg/kg/injection, schedule: Q04DX002 (ip), vehicle: other)?
The T/C was 103 % of control and 109 % of control.

What about the T/C (dose: 400.0 mg/kg/injection, schedule: Q04DX003 (ip), vehicle: other) of the same molecule?
The T/C was 89 % of control and 92 % of control.

How did the T/C [3] turn out when `Cc1ccc(S(=O)(=O)CC(=O)NC(C)C)cc1` was run?
The T/C was 100 % of control.

What about the T/C [4] of the same molecule?
The T/C was 110 % of control.

What about the T/C (dose: 400.0 mg/kg/injection, schedule: Q04DX003 (ip), vehicle: saline with Tween-80) of the same molecule?
The T/C was 97 % of control.

Which T/C (dose: 50.0 mg/kg/injection, schedule: Q01DX009 (ip), vehicle: saline) does the source give for `COC(C)C(Br)C(=O)O` (centres undefined) here?
The T/C was 98 % of control.

What about the T/C (dose: 100.0 mg/kg/injection, schedule: Q01DX009 (ip), vehicle: saline) of the same molecule?
The T/C was 95 % of control.

What about the T/C [5] of the same molecule?
Its T/C is 88 % of control.

What about the T/C (dose: 200.0 mg/kg/injection, schedule: Q01DX009 (ip), vehicle: saline) of the same molecule?
The T/C was 90 % of control.

What about the T/C (dose: 200.0 mg/kg/injection, schedule: Q04DX003 (ip), vehicle: saline) of the same molecule?
The T/C was 90 % of control.

How did the T/C [1] turn out when `C[N+]1(C)CC2C3C=CC(C3)C2C1` (centres undefined) was run?
The T/C was 102 % of control.

What about the T/C [2] of the same molecule?
The T/C was 96 % of control.

`Cc1ccccc1NC(=O)CS` was tested. Which T/C [3] did it give?
Its T/C is 95 % of control.

What about the T/C [4] of the same molecule?
The T/C was 88 % of control.

What does the source list for `NC(=O)c1[nH]cnc1/N=N/N(CCF)CCF`?
T/C (dose: 1.87 mg/kg/injection, schedule: Q01DX009 (ip), vehicle: other): 106 % of control; T/C (dose: 3.75 mg/kg/injection, schedule: Q01DX009 (ip), vehicle: other): 123 % of control; T/C (dose: 10.0 mg/kg/injection, schedule: Q01DX001 (ip), vehicle: other): 106 % of control; T/C (dose: 15.0 mg/kg/injection, schedule: Q01DX009 (ip), vehicle: other): 153 % of control

How did the T/C (dose: 100.0 mg/kg/injection, schedule: Q01DX009 (ip), vehicle: Klucel (hydroxypropylcellulose) (HPC)) turn out when `COc1cc([N+](=O)[O-])ccc1NC(=O)Oc1ccc(F)cc1Cl` was run?
The T/C was 94 % of control.

What about the T/C (dose: 200.0 mg/kg/injection, schedule: Q01DX009 (ip), vehicle: Klucel (hydroxypropylcellulose) (HPC)) of the same molecule?
Its T/C is 88 % of control.

How did the T/C [6] turn out when `CCC(O)C(CC(C)N(C)C)(c1ccccc1)c1ccccc1` (centres undefined) was run?
The T/C was 108 % of control.

`COc1cc(N(CCCl)CCCl)c(OC)cc1/C=N\Nc1nnc(C)n1N` was tested. Which T/C (dose: 2.5 mg/kg/injection, schedule: Q01DX015 (ip), vehicle: carboxymethylcellulose (CMC)) did it give?
The T/C was 115 % of control.

And the T/C (dose: 5.0 mg/kg/injection, schedule: Q01DX015 (ip), vehicle: carboxymethylcellulose (CMC))?
The T/C was 121 % of control.

What about the T/C (dose: 10.0 mg/kg/injection, schedule: Q01DX015 (ip), vehicle: carboxymethylcellulose (CMC)) of the same molecule?
The T/C was 155 % of control.

And the T/C (dose: 30.0 mg/kg/injection, schedule: Q01DX015 (ip), vehicle: carboxymethylcellulose (CMC))?
Its T/C is 103 % of control.

And the T/C (dose: 44.0 mg/kg/injection, schedule: Q01DX001 (ip), vehicle: carboxymethylcellulose (CMC))?
Its T/C is 103 % of control.

What about the T/C (dose: 50.0 mg/kg/injection, schedule: Q01DX001 (ip), vehicle: carboxymethylcellulose (CMC)) of the same molecule?
The T/C was 120 % of control.

And the T/C (dose: 67.0 mg/kg/injection, schedule: Q01DX001 (ip), vehicle: carboxymethylcellulose (CMC))?
The T/C was 115 % of control.

What about the T/C (dose: 100.0 mg/kg/injection, schedule: Q01DX001 (ip), vehicle: carboxymethylcellulose (CMC)) of the same molecule?
The T/C was 161 % of control.

And the T/C (dose: 400.0 mg/kg/injection, schedule: Q01DX001 (ip), vehicle: carboxymethylcellulose (CMC))?
Its T/C is 97 % of control.

With `CC[N+](C)(CC)CCOc1cc(C)ccc1C(C)C` as the molecule, how does the T/C (dose: 25.0 mg/kg/injection, schedule: Q04DX003 (ip), vehicle: saline) read?
The T/C was 104 % of control.

What about the T/C (dose: 50.0 mg/kg/injection, schedule: Q04DX003 (ip), vehicle: saline) of the same molecule?
The T/C was 98 % of control.

And the T/C [5]?
Its T/C is 93 % of control and 98 % of control.

Which results are given for `C(#Cc1ccccc1)COCC1CO1` (centres undefined)?
T/C (dose: 50.0 mg/kg/injection, schedule: Q04DX003 (ip), vehicle: saline with Tween-80): 95 % of control; T/C [3]: 98 % of control; T/C [4]: 91 % of control

How did the T/C [6] turn out when `Nc1nc(N2CCCCC2)c2nc(Cl)n(C3OC(CO)C(O)C3O)c2n1` (centres undefined) was run?
The T/C was 96 % of control.

And the T/C (dose: 200.0 mg/kg/injection, schedule: Q01DX001 (ip), vehicle: saline)?
Its T/C is 94 % of control.

What about the T/C (dose: 400.0 mg/kg/injection, schedule: Q01DX001 (ip), vehicle: saline) of the same molecule?
Its T/C is 97 % of control.
